Like-named read-outs stand apart in the source and are kept apart here.

The target in this test is T1, HRP Type VIA (Armoracia rusticana, UniProt P00433).
T1 sequence (P00433 31-338): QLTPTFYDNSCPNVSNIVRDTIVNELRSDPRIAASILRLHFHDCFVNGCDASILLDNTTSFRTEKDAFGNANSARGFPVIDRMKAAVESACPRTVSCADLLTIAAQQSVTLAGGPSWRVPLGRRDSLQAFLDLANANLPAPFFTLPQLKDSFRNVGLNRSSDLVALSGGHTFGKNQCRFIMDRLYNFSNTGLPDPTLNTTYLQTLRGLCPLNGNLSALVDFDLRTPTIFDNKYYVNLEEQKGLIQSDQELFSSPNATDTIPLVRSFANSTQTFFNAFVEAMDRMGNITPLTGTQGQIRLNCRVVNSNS
Particulars: 10µl test compound; for (d) Signal: Background: ratio (control = with no enhancer): control value in brackets not reported.

Take boroglycine [Compound 1015]: under “0.01 mg/ml”, the “(a) Decrease in background (without HRP with test cpd.)” value is recorded as “Y”; the “(b) Increase in signal (with HRP, with test cpd.)” value (from here on “(b) Increase in signal”) was “Y”; the “(c) Increase in signal: background ratio” value is on record as “N (N = no)”; the “(d) Signal: Background: ratio (control = with no enhancer)” value worked out at 2.3. Besides, where the note is “0.1 mg/ml”, the “(a) Decrease in background (without HRP with test cpd.)” value is “Y”; the “(b) Increase in signal” value was “Y”; the “(c) Increase in signal: background ratio” value is reported as “Y (Column (c) shows whether there was an increase in the signal:background ratio by over 25% of the control value (Y = yes)”; the “(d) Signal: Background: ratio (control = with no enhancer)” value is listed as 2.9. For the same molecule, under “1 mg/ml”, the “(a) Decrease in background (without HRP with test cpd.)” value is “Y”; the “(b) Increase in signal” value is reported as “N”; the “(c) Increase in signal: background ratio” value was “Y (Column (c) shows whether there was an increase in the signal:background ratio by over 25% of the control value (Y = yes)”; the “(d) Signal: Background: ratio (control = with no enhancer)” value is 3.1 (2.1).
Regarding `CCCCOB(OCCCC)c1ccc(-c2ccc(Br)cc2)cc1` [Compound 1038, 4-(4'-bromophenyl)phenyl-di-n-butoxyborane], for the setting “0.01 mg/ml”, the “(a) Decrease in background (without HRP with test cpd.)” value was “Y Y”; the “(b) Increase in signal” value is “Y Y”; the “(c) Increase in signal: background ratio” value is “Y Y (Column (c) shows whether there was an increase in the signal:background ratio by over 25% of the control value (Y = yes)”; the “(d) Signal: Background: ratio (control = with no enhancer)” value is 442.2. For the setting “0.1 mg/ml”, the “(a) Decrease in background (without HRP with test cpd.)” value is recorded as “Y Y”; the “(b) Increase in signal” value is given as “Y Y”; the “(c) Increase in signal: background ratio” value was “Y Y (Column (c) shows whether there was an increase in the signal:background ratio by over 25% of the control value (Y = yes)”; the “(d) Signal: Background: ratio (control = with no enhancer)” value worked out at 2118.5. For the same molecule, for the setting “1 mg/ml”, the “(a) Decrease in background (without HRP with test cpd.)” value was “Y”; the “(b) Increase in signal” value was “Y”; the “(c) Increase in signal: background ratio” value was “Y (Column (c) shows whether there was an increase in the signal:background ratio by over 25% of the control value (Y = yes)”; the “(d) Signal: Background: ratio (control = with no enhancer)” value is listed as 903.8 (4.5).
With `OB(O)c1ccc(Cl)c(Cl)c1` [Compound 1024, 3,4-dichlorophenylboronic acid], where the note is “0.01 mg/ml”, the “(a) Decrease in background (without HRP with test cpd.)” value is given as “Y”; the “(b) Increase in signal” value is “N”; the “(c) Increase in signal: background ratio” value is given as “N (N = no)”. For the setting “0.1 mg/ml”, the “(a) Decrease in background (without HRP with test cpd.)” value is “Y”; the “(b) Increase in signal” value is listed as “Y”; the “(c) Increase in signal: background ratio” value is given as “Y (Column (c) shows whether there was an increase in the signal:background ratio by over 25% of the control value (Y = yes)”; the “(d) Signal: Background: ratio (control = with no enhancer)” value is 5.4 (2.8). Also, for the setting “1 mg/ml”, the “(a) Decrease in background (without HRP with test cpd.)” value is on record as “Y”; the “(b) Increase in signal” value is given as “N”; the “(c) Increase in signal: background ratio” value is reported as “Y (Column (c) shows whether there was an increase in the signal:background ratio by over 25% of the control value (Y = yes)”; the “(d) Signal: Background: ratio (control = with no enhancer)” value is 7.6 (4.5).
As to “dimethylphenylboronic acid [Compound 1036]”, where the note is “0.01 mg/ml”, the “(a) Decrease in background (without HRP with test cpd.)” value is listed as “Y”; the “(b) Increase in signal” value was “N”; the “(c) Increase in signal: background ratio” value is “Y (Column (c) shows whether there was an increase in the signal:background ratio by over 25% of the control value (Y = yes)”; the “(d) Signal: Background: ratio (control = with no enhancer)” value was 2.6 (2.0). Where the note is “0.1 mg/ml”, the “(a) Decrease in background (without HRP with test cpd.)” value is “Y”; the “(b) Increase in signal” value is “N”; the “(c) Increase in signal: background ratio” value is given as “Y (Column (c) shows whether there was an increase in the signal:background ratio by over 25% of the control value (Y = yes)”; the “(d) Signal: Background: ratio (control = with no enhancer)” value is listed as 7.6 (2.9). Under “1 mg/ml”, the “(a) Decrease in background (without HRP with test cpd.)” value was “Y”; the “(b) Increase in signal” value was “N”; the “(c) Increase in signal: background ratio” value is “N (N = no)”.
On to `c1ccc(B2OCCCO2)cc1` [Compound 1012, 2-phenyl-1,3,2-dioxaborinane], for which, under “0.01 mg/ml”, the “(a) Decrease in background (without HRP with test cpd.)” value was “N”; the “(b) Increase in signal” value was “Y”; the “(c) Increase in signal: background ratio” value is “N (N = no)”; the “(d) Signal: Background: ratio (control = with no enhancer)” value is on record as 2.2. For the same molecule, where the note is “0.1 mg/ml”, the “(a) Decrease in background (without HRP with test cpd.)” value is “N”; the “(b) Increase in signal” value was “N”; the “(c) Increase in signal: background ratio” value is listed as “N (N = no)”; the “(d) Signal: Background: ratio (control = with no enhancer)” value was 2.2. In addition, where the note is “1 mg/ml”, the “(a) Decrease in background (without HRP with test cpd.)” value is “Y”; the “(b) Increase in signal” value is reported as “N”; the “(c) Increase in signal: background ratio” value was “Y (Column (c) shows whether there was an increase in the signal:background ratio by over 25% of the control value (Y = yes)”; the “(d) Signal: Background: ratio (control = with no enhancer)” value is 17.1 (2.5).
For “2-benzimidazolylphenylboronic acid [Compound 1046]”, the “(a) Decrease in background (without HRP with test cpd.)” value is listed as “Y” (0.01 mg/ml), “Y” (0.1 mg/ml) and “Y” (1 mg/ml). Moreover, the “(b) Increase in signal” value (0.01 mg/ml) is listed as “N”; the “(b) Increase in signal” value (0.1 mg/ml) is “N”; the “(b) Increase in signal” value (1 mg/ml) is recorded as “N”. Further, the “(c) Increase in signal: background ratio” value (0.01 mg/ml) was “N (N = no)”, the “(c) Increase in signal: background ratio” value (0.1 mg/ml) is “N (N = no)” and the “(c) Increase in signal: background ratio” value (1 mg/ml) is reported as “N (N = no)”.
For the molecule `OB(O)c1c(Cl)cc(Cl)cc1Cl` [Compound 1020, 2,4,6-trichlorophenylboronic acid], under “0.01 mg/ml”, the “(a) Decrease in background (without HRP with test cpd.)” value is “Y”; the “(b) Increase in signal” value was “N”; the “(c) Increase in signal: background ratio” value is recorded as “N (N = no)”; the “(d) Signal: Background: ratio (control = with no enhancer)” value is reported as 2.2 (2.0). Besides, for the setting “0.1 mg/ml”, the “(a) Decrease in background (without HRP with test cpd.)” value is “Y”; the “(b) Increase in signal” value was “N”; the “(c) Increase in signal: background ratio” value was “N (N = no)”. Under “1 mg/ml”, the “(a) Decrease in background (without HRP with test cpd.)” value is recorded as “Y”; the “(b) Increase in signal” value is “N”; the “(c) Increase in signal: background ratio” value is “N (N = no)”.
On to `O=C(CCl)Nc1cccc(B(O)O)c1` [Compound 1031, 3-chloroacetylaminophenylboronic acid], for which, where the note is “0.01 mg/ml”, the “(a) Decrease in background (without HRP with test cpd.)” value is recorded as “Y”; the “(b) Increase in signal” value is given as “N”; the “(c) Increase in signal: background ratio” value is “N (N = no)”; the “(d) Signal: Background: ratio (control = with no enhancer)” value is recorded as 2.1 (2.0). For the same molecule, for the setting “0.1 mg/ml”, the “(a) Decrease in background (without HRP with test cpd.)” value is “Y”; the “(b) Increase in signal” value is on record as “N”; the “(c) Increase in signal: background ratio” value was “N (N = no)”; the “(d) Signal: Background: ratio (control = with no enhancer)” value is on record as 3.3 (2.9). For the same molecule, where the note is “1 mg/ml”, the “(a) Decrease in background (without HRP with test cpd.)” value is “Y”; the “(b) Increase in signal” value is listed as “N”; the “(c) Increase in signal: background ratio” value is given as “N (N = no)”.
Consider “diphenylboronic anhydride [Compound 1048]”, for which, where the note is “0.01 mg/ml”, the “(a) Decrease in background (without HRP with test cpd.)” value is recorded as “Y”; the “(b) Increase in signal” value is “Y”; the “(c) Increase in signal: background ratio” value is recorded as “Y (Column (c) shows whether there was an increase in the signal:background ratio by over 25% of the control value (Y = yes)”; the “(d) Signal: Background: ratio (control = with no enhancer)” value was 3.1 (1.8). Where the note is “0.1 mg/ml”, the “(a) Decrease in background (without HRP with test cpd.)” value is recorded as “Y”; the “(b) Increase in signal” value is recorded as “Y”; the “(c) Increase in signal: background ratio” value was “Y (Column (c) shows whether there was an increase in the signal:background ratio by over 25% of the control value (Y = yes)”; the “(d) Signal: Background: ratio (control = with no enhancer)” value is 139.0 (2.7). Moreover, where the note is “1 mg/ml”, the “(a) Decrease in background (without HRP with test cpd.)” value is “Y”; the “(b) Increase in signal” value was “N”; the “(c) Increase in signal: background ratio” value is listed as “Y (Column (c) shows whether there was an increase in the signal:background ratio by over 25% of the control value (Y = yes)”; the “(d) Signal: Background: ratio (control = with no enhancer)” value was 100.0 (4.5).
As for `CC(C)COB(c1ccccc1)c1ccccc1` [Compound 1019, diphenylisobutoxyborane], where the note is “0.01 mg/ml”, the “(a) Decrease in background (without HRP with test cpd.)” value is given as “Y”; the “(b) Increase in signal” value is “N”; the “(c) Increase in signal: background ratio” value is given as “Y (Column (c) shows whether there was an increase in the signal:background ratio by over 25% of the control value (Y = yes)”; the “(d) Signal: Background: ratio (control = with no enhancer)” value is listed as 3.2 (2.0). In addition, where the note is “0.1 mg/ml”, the “(a) Decrease in background (without HRP with test cpd.)” value was “Y”; the “(b) Increase in signal” value was “N”; the “(c) Increase in signal: background ratio” value is “N (N = no)”; the “(d) Signal: Background: ratio (control = with no enhancer)” value is listed as 3.0 (2.9). For the setting “1 mg/ml”, the “(a) Decrease in background (without HRP with test cpd.)” value is “Y”; the “(b) Increase in signal” value was “N”; the “(c) Increase in signal: background ratio” value was “N (N = no)”.

These data come from patent EP0626016B1, “[…] […]” (BRITISH TECHNOLOGY GROUP LIMITED, priority 1992, dated 1993).
